The term Km denotes the concentration of substrate that gives half-maximal velocity. Broadly, the IC50 is the point on the concentration scale where inhibition reaches its midpoint. High values mean a need for much substance, low ones inhibition by little substance.

SMILES strings stand for the structures.

The text below walks through data of PMC3819915, “Stable Suppression of Lactate Dehydrogenase Activity during Anoxia in the Foot Muscle of Littorina littorea and the Potential Role of Acetylation as a Novel Posttranslational Regulatory Mechanism” (Enzyme Research, 2013).

Assay [1] deals with T1, LDH (D-lactate specific LDH, D-LDH) from foot muscle, aerobic control.
T1 construct: native enzyme from foot muscle of aerobic control snails, partially purified on blue agarose; more acetylated than the 24 h anoxic form
The assay can be described thus: NADH absorbance at […] nm, microplate. It counts as biochemical, Littorina littorea. Conditions: 25°C, control enzyme.

Assay [2] has the same test system. As to the kind of experiment: NADH absorbance at […] nm, microplate. In kind it is biochemical, Littorina littorea. Conditions: assay direction not stated for this effector, presumably pyruvate-reducing (pH 6.5, 2.5 mM pyruvate, 0.25 mM NADH); 25°C; control enzyme.

In the case of `CC(=O)C(=O)O` [pyruvate], the Km in assay [1] (25 mM KH2PO4 pH 6.5, 0.25 mM NADH) amounted to 0.29 ± 0.01 mM.
In assay [2], `Nc1ncnc2c1ncn2[C@@H]1O[C@H](COP(=O)(O)OP(=O)(O)OP(=O)(O)O)[C@@H](O)[C@H]1O` [ATP] displayed an IC50 of 13 ± 1 mM.
On to `C[C@@H](O)C(=O)O` [D-lactate], for which, in assay [1] (D-lactate-oxidizing direction, 25 mM KH2PO4 pH 9.5, 3 mM NAD+), the Km turned out to be 25 ± 2 mM.
In turn, `Nc1ncnc2c1ncn2[C@@H]1O[C@H](COP(=O)(O)OP(=O)(O)O)[C@@H](O)[C@H]1O` [ADP] gave an IC50 in assay [2] of 23 ± 2 mM.
